23 molecules from patent publication US9115133B2, “Substituted fused tricyclic compounds, compositions and medicinal applications thereof” (Advinus Therapeutics Limited, priority 2011, dated 2015) can be followed below.

Holding throughout (type): biochemical
Common to all, as to details: 200 μg/ml Poly Glu-Tyr (4:1), ATP 1 uM, 90 min room temperature, luminescence

In experiment [1] the target is T1, Recombinant JAK2 (Amino acids 808-1132) (Homo sapiens, UniProt O60674).
T1 construct: JAK2 (Amino acids 808-1132; NM_004972.3); made in house; host or cells: baculovirus expression system (Bac-to-Bac)
Put plainly: Kinase-Glo Luminescent Kinase Assay, recombinant JAK2. An excerpt: (§1) Recombinant JAK1 (Amino acids 850-1154; NM_002227.2), JAK2 (Amino acids 808-1132; NM_004972.3) and JAK3 (Amino acids 781-1124; NM_000215.3) used in the studies were expressed using Invitrogen's Bac-to-Bac baculovirus expression system according to manufacturer's instructions. Adenosine 5′-triphosphate was obtained from Sigma Aldrich chemicals (Cat # A7699). Poly Glu-Tyr (4:1) sodium salt was obtained from Sigma Aldrich (Cat # P0275), Kinase Glo® Luminescent Kinase assay kit was obtained from Promega (Cat # V6713) Kinase activity was assessed by Promega Kinase-Glo® Luminescent Kinase Assay kit using 200 μg/ml Poly Glu-Tyr (4:1) as substrate and ATP at 1 uM concentration. The reactions were carried out in 384 well plates in total reaction volume of 20 uL. Reaction mixtures contained 50 mM HEPES pH 7.4, 5 mM MgCl2, 1 mM DTT, 0.01% BSA, 0.01% Tween 20. Kinase was pre-incubated with compounds or 1% DMSO for 5 min before addition of substrate and ATP to check for inhibition. Kinase reactions were carried out at room temperature for 90 min. The reactions were stopped by adding 5 μl of Kinase Glo® reagent & 10 μl of reaction mixture followed by measuring luminescence. The luminescent signal is correlated with the amount of ATP present at the end of kinase reaction and is inversely correlated with the amount of kinase activity. For each data point, % inhibition is calculated based on uninhibited reaction (without compound) which is considered as 100% activity over no enzyme or substrate controls. Dose response data is then fit using a four parameter logistic equation using Graph-pad Prism 5 software to determine inhibition constant 50 (IC50).

The target in experiment [2] is T2, Recombinant JAK3 (Amino acids 781-1124) (Homo sapiens, UniProt P52333).
T2 construct: JAK3 (Amino acids 781-1124; NM_000215.3); made in house; host or cells: baculovirus expression system (Bac-to-Bac)
Put plainly: Kinase-Glo Luminescent Kinase Assay, recombinant JAK3.
From the text: as §1

For experiment [3], the target named is T3, Recombinant JAK1 (Amino acids 850-1154) (Homo sapiens, UniProt P23458).
T3 construct: Recombinant JAK1 (Amino acids 850-1154; NM_002227.2); made in house; host or cells: baculovirus expression system (Bac-to-Bac)
Put plainly: Kinase-Glo Luminescent Kinase Assay, recombinant JAK1.
From the text: as §1

The structures appear in SMILES notation. Some results are limits rather than exact numbers.

T3 sequence (P23458 850-1154): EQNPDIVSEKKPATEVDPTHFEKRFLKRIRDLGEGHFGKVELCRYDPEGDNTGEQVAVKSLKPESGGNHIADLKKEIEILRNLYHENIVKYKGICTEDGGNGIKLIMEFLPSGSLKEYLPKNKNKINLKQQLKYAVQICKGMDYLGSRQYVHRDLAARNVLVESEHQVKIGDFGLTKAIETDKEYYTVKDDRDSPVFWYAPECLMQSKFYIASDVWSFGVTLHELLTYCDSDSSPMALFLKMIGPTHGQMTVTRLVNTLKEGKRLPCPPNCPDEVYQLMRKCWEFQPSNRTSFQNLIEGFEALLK
T2 sequence (P52333 781-1124): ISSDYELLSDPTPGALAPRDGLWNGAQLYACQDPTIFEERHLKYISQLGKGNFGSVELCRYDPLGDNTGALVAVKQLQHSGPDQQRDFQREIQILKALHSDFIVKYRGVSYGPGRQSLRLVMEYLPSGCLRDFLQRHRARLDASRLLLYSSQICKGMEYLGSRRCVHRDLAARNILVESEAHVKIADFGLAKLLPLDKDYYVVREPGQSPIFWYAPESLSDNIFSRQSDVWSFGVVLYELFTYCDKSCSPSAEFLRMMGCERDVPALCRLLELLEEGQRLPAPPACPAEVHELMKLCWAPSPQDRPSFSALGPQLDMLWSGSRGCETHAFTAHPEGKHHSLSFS
T1 sequence (O60674 808-1132): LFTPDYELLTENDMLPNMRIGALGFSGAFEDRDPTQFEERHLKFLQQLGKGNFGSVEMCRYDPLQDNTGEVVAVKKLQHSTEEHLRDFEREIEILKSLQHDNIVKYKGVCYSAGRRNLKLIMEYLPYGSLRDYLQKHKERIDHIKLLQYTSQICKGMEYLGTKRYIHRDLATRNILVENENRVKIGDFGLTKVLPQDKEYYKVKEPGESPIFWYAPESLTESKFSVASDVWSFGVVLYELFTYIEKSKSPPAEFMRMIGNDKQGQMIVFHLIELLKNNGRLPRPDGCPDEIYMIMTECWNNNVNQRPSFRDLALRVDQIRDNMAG

Regarding `CC(C)(C)OC(=O)N1CCCC(c2ncnc3cnc4[nH]ccc4c23)C1` (stereo not shown) [Comp. 55, 3-(3H-3,4,6,8-Tetraaza-cyclopenta[a]naphthalen-9-yl)-piperidine-1-carboxylic acid tert-butyl ester], the half-maximal inhibitory concentration (IC50) in experiment [1] is more than 20 nM; in experiment [2] it was more than 20 nM; in experiment [3], 1 to 20 nM.

For `N#CCC(=O)N1CCCC(c2ccnc3cnc4[nH]ccc4c23)C1` (stereo not shown) [Ex. 1, 3-oxo-3-[3-(3H-pyrrolo[3,2-f][1,7]naphthyridin-9-yl)-1-piperidyl]propanenitrile], the IC50 in experiment [1], in experiment [2] and in experiment [3] was 1 to 20 nM in each case.

Consider `N#CCC(=O)N1CCC[C@H](c2ccnc3cnc4[nH]ccc4c23)C1` [Ex. 1A, (R)3-oxo-3-[3-(3H-pyrrolo[3,2-f][1,7]naphthyridin-9-yl)-1-piperidyl]propanenitrile], for which the half-maximal inhibitory concentration (IC50) in experiment [1], in experiment [2] and in experiment [3] was more than 20 nM each time.

`N#CCC(=O)N1CCC[C@@H](c2ccnc3cnc4[nH]ccc4c23)C1` [Ex. 1B, (S)3-oxo-3-[3-(3H-pyrrolo[3,2-f][1,7]naphthyridin-9-yl)-1-piperidyl]propanenitrile]: the half-maximal inhibitory concentration (IC50) is 1 to 20 nM in experiment [1], less than 1 nM in experiment [2] and 1 to 20 nM in experiment [3].

`O=C(CC(F)(F)F)N1CCC[C@H](c2ccnc3cnc4[nH]ccc4c23)C1` [Ex. 4A, (R)3,3,3-trifluoro-1-[3-(3H-pyrrolo[3,2-f][1,7]naphthyridin-9-yl)-1-piperidyl]propan-1-one]: the IC50 in experiment [1], in experiment [2] and in experiment [3] was 1 to 20 nM throughout.

As to `CCS(=O)(=O)N1CCCC(c2ccnc3cnc4[nH]ccc4c23)C1` (stereo not shown) [Ex. 9, 9-(1-ethylsulfonyl-3-piperidyl)-3H-pyrrolo[3,2-f][1,7]naphthyridine], the IC50 in experiment [1], in experiment [2] and in experiment [3] was 1 to 20 nM each time.

In the case of `CS(=O)(=O)N1CCCC(c2ccnc3cnc4[nH]ccc4c23)C1` (stereo not shown) [Ex. 10, 9-(1-methylsulfonyl-3-piperidyl)-3H-pyrrolo[3,2-f][1,7]naphthyridine], the IC50 in experiment [1], in experiment [2] and in experiment [3] was 1 to 20 nM throughout.

On to `CS(=O)(=O)N1CCC[C@@H](c2ccnc3cnc4[nH]ccc4c23)C1` [Ex. 10B, (S)9-(1-methylsulfonyl-3-piperidyl)-3H-pyrrolo[3,2-f][1,7]naphthyridine], for which the IC50 in experiment [1], in experiment [2] and in experiment [3] was 1 to 20 nM throughout.

Turning to `CC(C)S(=O)(=O)N1CCCC(c2ccnc3cnc4[nH]ccc4c23)C1` (stereo not shown) [Ex. 11, 9-(1-isopropylsulfonyl-3-piperidyl)-3H-pyrrolo[3,2-][1,7]naphthyridine], the half-inhibitory concentration (IC50) in experiment [1], in experiment [2] and in experiment [3] was more than 20 nM in each case.

With `CS(=O)(=O)CC(=O)N1CCCC(c2ccnc3cnc4[nH]ccc4c23)C1` (stereo not shown) [Ex. 12, 2-methylsulfonyl-1-[3-(3H-pyrrolo[3,2-f][1,7]naphthyridin-9-yl)-1-piperidyl]ethanone], the IC50 in experiment [1] was 1 to 20 nM; in experiment [2], more than 20 nM; in experiment [3], 1 to 20 nM.

Take `CC(C)NC(=O)N1CCCC(c2ccnc3cnc4[nH]ccc4c23)C1` (stereo not shown) [Ex. 13, N-isopropyl-3-(3H-pyrrolo[3,2-f][1,7]naphthyridin-9-yl)piperidine-1-carboxamide]: the IC50 in experiment [1], in experiment [2] and in experiment [3] was more than 20 nM each time.

Turning to `N#CCC(=O)N1CCC(c2ccnc3cnc4[nH]ccc4c23)C1` (stereo not shown) [Ex. 14, 3-oxo-3-[3-(3H-pyrrolo[3,2-f][1,7]naphthyridin-9-yl)pyrrolidin-1-yl]propanenitrile], the IC50 was 1 to 20 nM in experiment [1], more than 20 nM in experiment [2] and 1 to 20 nM in experiment [3].

In the case of `N#CCC(=O)N1CC[C@H](c2ccnc3cnc4[nH]ccc4c23)C1` [Ex. 14A, (R)3-oxo-3-[3-(3H-pyrrolo[3,2-f][1,7]naphthyridin-9-yl)pyrrolidin-1-yl]propanenitrile], the IC50 in experiment [1], in experiment [2] and in experiment [3] was more than 20 nM each time.

Turning to `N#CCC(=O)N1CC[C@@H](c2ccnc3cnc4[nH]ccc4c23)C1` [Ex. 14B, (S)3-oxo-3-[3-(3H-pyrrolo[3,2-f][1,7]naphthyridin-9-yl)pyrrolidin-1-yl]propanenitrile], the 50% inhibitory concentration (IC50) in experiment [1] is 1 to 20 nM; in experiment [2], more than 20 nM; in experiment [3], 1 to 20 nM.

As to `O=C(CC(F)(F)F)N1CCC(c2ccnc3cnc4[nH]ccc4c23)C1` (stereo not shown) [Ex. 15, 3,3,3-trifluoro-1-[3-(3H-pyrrolo[3,2-f][1,7]naphthyridin-9-yl)pyrrolidin-1-yl]propan-1-one], the half-inhibitory concentration (IC50) is 1 to 20 nM in experiment [1], more than 20 nM in experiment [2] and 1 to 20 nM in experiment [3].

Consider `c1cc(N2CCC(OCC3CC3)C2)c2c(cnc3[nH]ccc32)n1` (stereo not shown) [Ex. 59, 9-[3-(cyclopropylmethoxy)pyrrolidin-1-yl]-3H-pyrrolo[3,2-f][1,7]naphthyridine], for which the concentration for half-maximal inhibition (IC50) in experiment [1] is more than 20 nM; in experiment [2] it was 1 to 20 nM.

In the case of `O=C(NC1CC1)C1CCCN(c2ccnc3cnc4[nH]ccc4c23)C1` (stereo not shown) [Ex. 61, N-cyclopropyl-1-(3H-pyrrolo[3,2-f][1,7]naphthyridin-9-yl)piperidine-3-carboxamide], the IC50 in experiment [1] and in experiment [2] was more than 20 nM in each case.

On to `O=C(NC1CC1)[C@H]1CCCN(c2ccnc3cnc4[nH]ccc4c23)C1` [Ex. 61A, (3S)-N-cyclopropyl-1-(3H-pyrrolo[3,2-f][1,7]naphthyridin-9-yl)piperidine-3-carboxamide], for which the concentration for half-maximal inhibition (IC50) in experiment [1] and in experiment [2] was more than 20 nM each time.

For the molecule `CN(CC1CC1)C1CCN(c2ccnc3cnc4[nH]ccc4c23)C1` (stereo not shown) [Ex. 62, N-(cyclopropylmethyl)-N-methyl-1-(3H-pyrrolo[3,2-f][1,7]naphthyridin-9-yl)pyrrolidin-3-amine], the IC50 in experiment [1] and in experiment [2] was more than 20 nM throughout.

Regarding `O=S(=O)(CC(F)(F)F)NC1CCCN(c2ccnc3cnc4[nH]ccc4c23)C1` (stereo not shown) [Ex. 86, 2,2,2-trifluoro-N-[1-(3H-pyrrolo[3,2-f][1,7]naphthyridin-9-yl)-3-piperidyl] ethanesulfonamide], the half-inhibitory concentration (IC50) in experiment [1] and in experiment [2] was 1 to 20 nM in each case.

As for `O=S(=O)(CC(F)(F)F)NC1CCN(c2ccnc3cnc4[nH]ccc4c23)C1` (stereo not shown) [Ex. 90, 2,2,2-trifluoro-N-[1-(3H-pyrrolo[3,2-f][1,7]naphthyridin-9-yl)pyrrolidin-3-yl] ethanesulfonamide], the concentration for half-maximal inhibition (IC50) in experiment [1] and in experiment [2] was 1 to 20 nM each time.

With `O=S(=O)(NC1CCN(c2ccnc3cnc4[nH]ccc4c23)C1)C1CC1` (stereo not shown) [Ex. 91, N-[1-(3H-pyrrolo[3,2-f][1,7]naphthyridin-9-yl)pyrrolidin-3-yl]cyclopropanesulfon-amide], the figures for the half-maximal inhibitory concentration (IC50) in experiment [1] and in experiment [2] were 1 to 20 nM and more than 20 nM, respectively.

In the case of `CC(C)S(=O)(=O)NC1CCN(c2ccnc3cnc4[nH]ccc4c23)C1` (stereo not shown) [Ex. 92, N-[1-(3H-pyrrolo[3,2-f][1,7]naphthyridin-9-yl)pyrrolidin-3-yl]propane-2-sulfonamide], the IC50 in experiment [1] is 1 to 20 nM; in experiment [2] it was more than 20 nM.
